In patent publication US11840686B2, “Modulation of prekallikrein (PKK) expression” (Ionis Pharmaceuticals, Inc., priority 2013, dated 2023):
Strand notation (5' to 3'): a small letter for the sugar, then the base; units joined by * are phosphorothioate-linked, units joined directly phosphodiester-linked; [ ] holds rarer units or linkages, { } end groups; capitals alone tell only the bases. e = 2'-O-(2-methoxyethyl) (MOE); [5mC] = 5-methylcytosine; d = 2'-deoxy (DNA)

What was measured:
human PKK mRNA [1] = assay: Dose-dependent antisense inhibition of human PKK in HepaRG cells, 0.19-5.00 uM (Example 5); type: cell-based; settings: for percent inhibition of PKK mRNA, 0.19 μM: 0.19 μM antisense oligonucleotide; for percent inhibition of PKK mRNA, 0.56 μM: 0.56 μM antisense oligonucleotide; for percent inhibition of PKK mRNA, 1.67 μM: 1.67 μM antisense oligonucleotide; for percent inhibition of PKK mRNA, 5.00 μM: 5.00 μM antisense oligonucleotide
In short: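 HepaRG cells (20,000/well) were electroporated with antisense oligonucleotide at 0.19, 0.56, 1.67 and 5.00 μM and treated for about 16 hours. PKK mRNA was quantified by qRT-PCR with primer probe set RTS3454, normalised to RIBOGREEN total RNA, and IC50 was derived per oligonucleotide.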

human PKK mRNA [2] = assay: Antisense inhibition of human PKK mRNA in HepaRG cells, 5,000 nM (Example 2); type: cell-based
In short: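 Percent inhibition of PKK mRNA is reported relative to untreated cells, after adjustment for total RNA by RIBOGREEN. Gapmers of 16–20 nucleosides with 2′-MOE wings were delivered at 5,000 nM by electroporation into HepaRG cells and left for roughly 24 hours before RNA isolation.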

[3] = HepaRG cells, electroporation, approximately 16 hours, Table 37
[4] = HepaRG cells, electroporation with 5,000 nM antisense oligonucleotide, approximately 24 hours, PKK mRNA by RT-PCR (RTS3454), relative to untreated control cells, Table 6 experiment
[5] = HepaRG cells, electroporation, approximately 16 hours, Table 36
[6] = HepaRG cells, electroporation, approximately 16 hours, Table 38
[7] = 4 point dose response, HepaRG cells, Table 38
[8] = HepaRG cells, electroporation, approximately 16 hours, Table 40
[9] = Table 34, HepaRG, electroporation, ~16 h
[10] = HepaRG cells, electroporation, approximately 16 hours, Table 39

547349 (antisense e[5mC]*eT*eT*e[5mC]*eA*dA*d[5mC]*dA*d[5mC]*dT*dG*d[5mC]*dT*dA*dA*e[5mC]*e[5mC]*eT*eT*eA) [compound 547349]
percent inhibition of PKK at 0.19 μM (human PKK mRNA [1]; [3]): 0%
percent inhibition of PKK at 0.56 μM (human PKK mRNA [1]; [3]): 8%
percent inhibition of PKK at 1.67 μM (human PKK mRNA [1]; [3]): 66%
percent inhibition of PKK at 5.00 μM (human PKK mRNA [1]; [3]): 76%
IC50 (human PKK mRNA [1]; 4 point dose response, HepaRG cells, Table 37): 1.6 µM
% inhibition (human PKK mRNA [2]; [4]): 88%

546826 (eA*eG*eT*eA*eT*d[5mC]*dA*d[5mC]*dT*dG*dT*dA*d[5mC]*dT*dA*eG*eT*eT*eT*e[5mC]; antisense) [compound 546826]
percent inhibition of PKK at 0.19 μM (human PKK mRNA [1]; [5]): 17%
percent inhibition of PKK at 0.56 μM (human PKK mRNA [1]; [5]): 40%
percent inhibition of PKK at 1.67 μM (human PKK mRNA [1]; [5]): 87%
percent inhibition of PKK at 5.00 μM (human PKK mRNA [1]; [5]): 97%
IC50 (human PKK mRNA [1]; 4 point dose response, HepaRG cells, Table 36): 0.7 µM
% inhibition (human PKK mRNA [2]; Table 13, human PKK mRNA in HepaRG cells, 5-10-5 gapmers): 90%

546412 (eG*eG*e[5mC]*eT*eT*d[5mC]*dA*dA*dT*dA*dT*dT*dG*dA*d[5mC]*eT*eT*eT*eG*eG; antisense) [compound 546412]
percent inhibition of PKK at 0.19 μM (human PKK mRNA [1]; [6]): 0%
percent inhibition of PKK at 0.56 μM (human PKK mRNA [1]; [6]): 1%
percent inhibition of PKK at 1.67 μM (human PKK mRNA [1]; [6]): 61%
percent inhibition of PKK at 5.00 μM (human PKK mRNA [1]; [6]): 62%
IC50 (human PKK mRNA [1]; [7]): 2.3 µM
% inhibition (human PKK mRNA [2]; HepaRG cells, electroporation, 5,000 nM antisense oligonucleotide, approx. 24 hours, primer probe set RTS3454, relative to untreated control cells, Table 12): 84%

547294 (antisense e[5mC]*eT*e[5mC]*eA*eT*d[5mC]*dT*dG*dG*d[5mC]*dA*dG*dT*dA*dT*eT*eG*eG*eG*e[5mC]) [compound 547294]
percent inhibition of PKK at 0.19 μM (human PKK mRNA [1]; [6]): 28%
percent inhibition of PKK at 0.56 μM (human PKK mRNA [1]; [6]): 59%
percent inhibition of PKK at 1.67 μM (human PKK mRNA [1]; [6]): 87%
percent inhibition of PKK at 5.00 μM (human PKK mRNA [1]; [6]): 86%
IC50 (human PKK mRNA [1]; [7]): 0.4 µM
percent inhibition of PKK mRNA, 0.19 μM (human PKK mRNA [1]; HepaRG cells): 4%
percent inhibition of PKK mRNA, 0.56 μM (human PKK mRNA [1]; HepaRG cells): 70%
percent inhibition of PKK mRNA, 1.67 μM (human PKK mRNA [1]; HepaRG cells): 84%
percent inhibition of PKK mRNA, 5.00 μM (human PKK mRNA [1]; HepaRG cells): 91%
IC50 (human PKK mRNA [1]; HepaRG cells, 0.19-5.00 μM): 0.6 µM
% inhibition (human PKK mRNA [2]; HepaRG cells, electroporation with 5,000 nM antisense oligonucleotide, approximately 24 hours, PKK mRNA by RT-PCR (RTS3454), relative to untreated control cells, Table 5 experiment): 85%

546980 (eA*eG*e[5mC]*e[5mC]*e[5mC]*dT*d[5mC]*dA*dA*dT*dT*dG*dT*dT*dG*e[5mC]*eT*eG*eG*eT; antisense) [compound 546980]
percent inhibition of PKK at 0.19 μM (human PKK mRNA [1]; [8]): 0%
percent inhibition of PKK at 0.56 μM (human PKK mRNA [1]; [8]): 18%
percent inhibition of PKK at 1.67 μM (human PKK mRNA [1]; [8]): 29%
percent inhibition of PKK at 5.00 μM (human PKK mRNA [1]; [8]): 80%
IC50 (human PKK mRNA [1]; 4 point dose response, HepaRG cells, Table 40): 2.2 µM
% inhibition (human PKK mRNA [2]; HepaRG cells, 5,000 nM antisense oligonucleotide, 5-10-5 gapmers, Table 16): 79%

546188 (antisense e[5mC]*eT*e[5mC]*e[5mC]*eT*dT*dT*dA*dT*dA*dA*dA*dT*dG*dT*e[5mC]*eT*e[5mC]*eG*eA) [compound 546188]
percent inhibition of PKK at 5.00 μM (human PKK mRNA [1]; HepaRG cells, electroporation, approximately 16 hours, Table 41): 97%
percent inhibition of PKK at 0.19 0μM (human PKK mRNA [1]; 0.19 0μM, HepaRG cells, electroporation, approximately 16 hours, Table 41): 27%
percent inhibition of PKK at 0.56 0μM (human PKK mRNA [1]; 0.56 0μM, HepaRG cells, electroporation, approximately 16 hours, Table 41): 69%
percent inhibition of PKK at 1.67 1μM (human PKK mRNA [1]; 1.67 1μM, HepaRG cells, electroporation, approximately 16 hours, Table 41): 88%
IC50 (human PKK mRNA [1]; 4 point dose response, HepaRG cells, Table 41): 0.4 µM
percent inhibition of PKK at 0.19 μM (human PKK mRNA [1]; [9]): 36%
percent inhibition of PKK at 0.56 μM (human PKK mRNA [1]; [9]): 55%
percent inhibition of PKK at 1.67 μM (human PKK mRNA [1]; [9]): 81%
percent inhibition of PKK at 5.00 μM (human PKK mRNA [1]; [9]): 83%
IC50 (human PKK mRNA [1]; Table 34, PKK mRNA, HepaRG, electroporation, ~16 h): 0.4 µM
% inhibition (human PKK mRNA [2]; [4]): 95%

546248 (e[5mC]*e[5mC]*eT*e[5mC]*e[5mC]*dA*dA*dA*dG*dT*d[5mC]*dA*dA*d[5mC]*dT*e[5mC]*e[5mC]*e[5mC]*eG*eG; antisense) [compound 546248]
percent inhibition of PKK at 0.19 μM (human PKK mRNA [1]; [10]): 25%
percent inhibition of PKK at 0.56 μM (human PKK mRNA [1]; [10]): 66%
percent inhibition of PKK at 1.67 μM (human PKK mRNA [1]; [10]): 87%
percent inhibition of PKK at 5.00 μM (human PKK mRNA [1]; [10]): 93%
IC50 (human PKK mRNA [1]; 4 point dose response, HepaRG cells, Table 39): 0.4 µM
percent inhibition of PKK mRNA, 0.19 μM (human PKK mRNA [1]; HepaRG cells): 0%
percent inhibition of PKK mRNA, 0.56 μM (human PKK mRNA [1]; HepaRG cells): 59%
percent inhibition of PKK mRNA, 1.67 μM (human PKK mRNA [1]; HepaRG cells): 73%
percent inhibition of PKK mRNA, 5.00 μM (human PKK mRNA [1]; HepaRG cells): 89%
IC50 (human PKK mRNA [1]; HepaRG cells, 0.19-5.00 μM): 0.8 µM
% inhibition (human PKK mRNA [2]; Table 7, HepaRG cells, electroporation with 5,000 nM antisense oligonucleotide, approx. 24 hours, PKK mRNA by RT-PCR (RTS3454), relative to untreated control cells): 86%
